Data from patent US20230118795A1, “ARYL OR HETEROARYL PYRIDONE OR PYRIMIDINE DERIVATIVE, PREPARATION METHOD AND USE THEREOF” (SUZHOU ZELGEN BIOPHARMACEUTICALS CO., LTD., priority 2020, published 2023).

test system: NCI-H358 (KRAS^G12C mutation) cell; test: Cell assay of antiproliferative activity against NCI-H358 cell (Celltiter-Glo, 5 days); format: cell-based; details: 5 days incubation
Protocol: Cell Assay of Antiproliferative Activity of Compounds Against NCI-H358 (KRAS^G12C Mutation) Cell.
40 μL phosphate buffer was added to the outer wells of the 384 microplate, and 40 μL cell suspension to be tested was added to the other wells. Then the microplate was incubated in a carbon dioxide incubator overnight.
The compounds to be tested were gradiently diluted, each compound was performed 10 concentration gradients (diluted from 50 μM to 0.003 μM) and added 100 nL to the corresponding wells in the microplate. After addition, 40 μl of phosphate buffer was added to each well in rows A and P and columns 1 and 24, and then the microplate was incubated in a carbon dioxide incubator for 5 days.
20 μL of Promega Celltiter-Glo reagent was added to each well of the microplate, and then the luminescence signal was stabilized by oscillating at room temperature for 10 min. Then PekinElmer Envision multi-label analyzer was used to read.
Finally, GraphPad Prism software was used to calculate the IC50 value of the compound and the fitting curve was drawn.
Anti-proliferative activity of the compounds of the present invention against NCI-H358 (KRAS^G12C mutation) cell was shown in Table 1.

IC50 | Compound
> 10 µM | C=CC(=O)N1CCN(c2nc(=O)n(-c3c(C(C)C)cccc3S(C)(=O)=O)c3nc(-c4c(Cl)ccc5cn[nH]c45)c(F)cc23)[C@@H](C)C1 [Example 75]
1 to 10 µM | C=CC(=O)N1CCN(c2nc(=O)n(-c3cccnc3S(C)(=O)=O)c3nc(-c4c(O)cccc4F)c(F)cc23)[C@@H](C)C1 [Example 88, 4-((S)-4-acryloyl-2-methylpiperazin-1-yl)-6-fluoro-7-(2-fluoro-6-hydroxyphenyl)-1-(2-(methylsulfonyl)pyridin-3-yl) pyridino [2,3-d] pyrimidin-2(1H)-one]
1 to 10 µM | C=CC(=O)N1CCN(c2nc(=O)n(-c3cnccc3S(C)(=O)=O)c3nc(-c4c(O)cccc4F)c(F)cc23)[C@@H](C)C1 [Example 89]
1 to 10 µM | C=CC(=O)N1CCN(c2nc(=O)n(-c3ccccc3S(C)(=O)=O)c3nc(-c4c(O)cccc4F)c(F)cc23)CC1CC#N (centres unmarked) [Example 90, 2-(1-acryloyl-4-(6-fluoro-7-(2-fluoro-6-hydroxyphenyl)-1-(2-(methylsulfonyl)phenyl)-2-oxo-1,2-dihydropyridino [2,3-d]pyrimidin-4-yl)piperazin-2-yl) acetonitrile]
1 to 10 µM | C=CC(=O)N1CCN(c2nc(=O)n(-c3c(C)cccc3S(C)(=O)=O)c3nc(-c4c(O)cccc4F)c(F)cc23)CC1CC#N (centres unmarked) [Example 91, 2-(1-acryloyl-4-(6-fluoro-7-(2-fluoro-6-hydroxyphenyl)-1-(2-methyl-6-(methylsulfonyl)phenyl)-2-oxo-1,2-dihydropyridino [2,3-d]pyrimidin-4-yl)piperazin-2-yl) acetonitrile]

same assay, conditions: Homo sapiens, NCI-H358, 120 h, 5 days incubation

Compound | IC50
C=CC(=O)N1CCN(c2nc(=O)n(-c3c(C)cccc3S(C)(=O)=O)c3nc(-c4c(F)cccc4Cl)c(F)cc23)[C@@H](C)C1 [Example 59, 4-((S)-4-acryloyl-2-methylpiperazin-1-yl)-7-(2-chloro-6-fluorophenyl)-6-fluoro-1-(2-methyl-6-(methylsulfonyl)phenyl) pyridino [2,3-d] pyrimidin-2(1H)-one] | 0.2 µM
C=CC(=O)N1CCN(c2nc(=O)n(-c3ccccc3S(C)(=O)=O)c3nc(-c4c(O)cccc4F)c(F)cc23)C(CC#N)C1 (centres unmarked) [Example 60, 2-(4-acryloyl-1-(6-fluoro-7-(2-fluoro-6-hydroxyphenyl)-1-(2-(methylsulfonyl)phenyl)-2-oxo-1,2-dihydropyridino [2,3-d]pyrimidin-4-yl)piperazin-2-yl) acetonitrile] | > 10 µM
C=CC(=O)N1CCN(c2nc(=O)n(-c3ccccc3S(C)(=O)=O)c3nc(-c4c(O)cccc4F)c(F)cc23)C(CC(N)=O)C1 (centres unmarked) [Example 61, 2-(4-acryloyl-1-(6-fluoro-7-(2-fluoro-6-hydroxyphenyl)-1-(2-(methylsulfonyl)phenyl)-2-oxo-1,2-dihydropyridino [2,3-d]pyrimidin-4-yl)piperazin-2-yl) acetamide] | > 10 µM
C=CC(=O)N1C[C@H](C)N(c2nc(=O)n(-c3c(C4CCC4)cccc3S(C)(=O)=O)c3nc(-c4c(O)cccc4F)c(F)cc23)C[C@H]1C [Example 63A] | 0.37 µM
C=CC(=O)N1CCN(c2nc(=O)n(-c3c(C(C)C)cccc3S(C)(=O)=O)c3nc(-c4cc(C#N)ccc4Cl)c(F)cc23)[C@@H](C)C1 [Example 64, (S)-3-(4-(4-acryloyl-2-methylpiperazin-1-yl)-6-fluoro-1-(2-isopropyl-6-(methylsulfonyl)phenyl)-2-oxo-1,2-dihydropyridino[2,3-d]pyrimidin-7-yl)-4-chlorobenzonitrile] | 0.12 µM
C=CC(=O)N1CCN(c2nc(=O)n(-c3c(C(C)C)cccc3S(C)(=O)=O)c3nc(-c4cccc(C#N)c4Cl)c(F)cc23)[C@@H](C)C1 [Example 65, (S)-3-(4-(4-acryloyl-2-methylpiperazin-1-yl)-6-fluoro-1-(2-isopropyl-6-(methylsulfonyl)phenyl)-2-oxo-1,2-dihydropyridino[2,3-d]pyrimidin-7-yl)-2-chlorobenzonitrile] | > 10 µM
C=CC(=O)N1CCN(c2nc(=O)n(-c3c(C(C)C)cccc3S(C)(=O)=O)c3nc(-c4ccc(C#N)cc4Cl)c(F)cc23)[C@@H](C)C1 [Example 66, (S)-4-(4-(4-acryloyl-2-methylpiperazin-1-yl)-6-fluoro-1-(2-isopropyl-6-(methylsulfonyl)phenyl)-2-oxo-1,2-dihydropyridino [2,3-d]pyrimidin-7-yl)-3-chlorobenzonitrile] | > 10 µM
C=CC(=O)N1CCN(c2nc(=O)n(-c3c(C(C)C)cccc3S(C)(=O)=O)c3nc(-c4c(Cl)cccc4C#N)c(F)cc23)[C@@H](C)C1 [Example 67] | > 10 µM
C=CC(=O)N1CCN(c2nc(=O)n(-c3c(C(C)C)cccc3S(C)(=O)=O)c3nc(-c4ccnn4C)c(F)cc23)[C@@H](C)C1 [Example 68, (S)-4-(4-acryloyl-2-methylpiperazin-1-yl)-6-fluoro-1-(2-isopropyl-6-(methylsulfonyl)phenyl)-7-(1-methyl-1H-pyrazol-5-yl) pyridino [2,3-d] pyrimidin-2(1H)-one] | 2.2 µM
C=CC(=O)N1CCN(c2nc(=O)n(-c3c(C(C)C)cccc3S(C)(=O)=O)c3nc(-c4ccn[nH]4)c(F)cc23)[C@@H](C)C1 [Example 69, (S)-4-(4-acryloyl-2-methylpiperazin-1-yl)-6-fluoro-1-(2-isopropyl-6-(methylsulfonyl)phenyl)-7-(1H-pyrazol-5-yl) pyridino[2,3-d] pyrimidin-2(1H)-one] | > 10 µM
C=CC(=O)N1CCN(c2nc(=O)n(-c3c(C(C)C)cccc3S(C)(=O)=O)c3nc(-c4cncn4C)c(F)cc23)[C@@H](C)C1 [Example 70, (S)-4-(4-acryloyl-2-methylpiperazin-1-yl)-6-fluoro-1-(2-isopropyl-6-(methylsulfonyl)phenyl)-7-(1-methyl-1H-imidazol-5-yl) pyridino [2,3-d] pyrimidin-2 (1H)-one] | > 10 µM
C=CC(=O)N1CCN(c2nc(=O)n(-c3c(C(C)C)cccc3S(C)(=O)=O)c3nc(-c4ccc[nH]c4=O)c(F)cc23)[C@@H](C)C1 [Example 71, (S)-4-(4-acryloyl-2-methylpiperazin-1-yl)-6-fluoro-1-(2-isopropyl-6-(methylsulfonyl)phenyl)-7-(2-oxo-1,2-dihydropyridin-3-yl) pyridino[2,3-d] pyrimidin-2 (1H)-one] | > 10 µM
C=CC(=O)N1CCN(c2nc(=O)n(-c3c(C(C)C)cccc3S(C)(=O)=O)c3nc(-c4cccc(=O)[nH]4)c(F)cc23)[C@@H](C)C1 [Example 72, (S)-4-(4-acryloyl-2-methylpiperazin-1-yl)-6-fluoro-1-(2-isopropyl-6-(methylsulfonyl)phenyl)-7-(6-oxo-1,6-dihydropyridin-2-yl) pyridino[2,3-d] pyrimidin-2 (1H)-one] | > 10 µM
C=CC(=O)N1CCN(c2nc(=O)n(-c3c(C(C)C)cccc3S(C)(=O)=O)c3nc(-c4cccn(C)c4=O)c(F)cc23)[C@@H](C)C1 [Example 73, (S)-4-(4-acryloyl-2-methylpiperazin-1-yl)-6-fluoro-1-(2-isopropyl-6-(methylsulfonyl)phenyl)-7-(1-methyl-2-oxo-1,2-dihydropyridin-3-yl) pyridino[2,3-d] pyrimidin-2 (1H)-one] | > 10 µM
C=CC(=O)N1CCN(c2nc(=O)n(-c3c(C(C)C)cccc3S(C)(=O)=O)c3nc(-c4cccc(=O)n4C)c(F)cc23)[C@@H](C)C1 [Example 74, (S)-4-(4-acryloyl-2-methylpiperazin-1-yl)-6-fluoro-1-(2-isopropyl-6-(methylsulfonyl)phenyl)-7-(1-methyl-6-oxo-1,6-dihydropyridin-2-yl) pyridino[2,3-d] pyrimidin-2 (1H)-one] | > 10 µM

Second part, the compound after the results:

IC50 | Compound
> 10 µM | C=CC(=O)N1CCN(c2nc(=O)n(-c3c(C(C)C)cccc3S(C)(=O)=O)c3nc(-c4c(C)ncn4C)c(F)cc23)[C@@H](C)C1 [Example 76, 4-((S)-4-acryloyl-methylpiperazin-1-yl)-7-(1,4-dimethyl-1H-imidazol-5-yl)-6-fluoro-1-(2-isopropyl-6-(methylsulfonyl)phenyl) pyridino [2,3-d] pyrimidin-2 (1H)-one]
> 10 µM | C=CC(=O)N1CCN(c2nc(=O)n(-c3c(C(C)C)cccc3S(C)(=O)=O)c3nc(-c4c(F)cccc4C(=O)OC)c(F)cc23)[C@@H](C)C1 [Example 77]
0.17 µM | C=CC(=O)N1C[C@H](C)N(c2nc(=O)n(-c3c(C(C)C)cccc3S(C)(=O)=O)c3nc(-c4c(O)cccc4F)c(F)cc23)C[C@H]1C [Example 78A]
< 1 µM | C=CC(=O)N1CCN(c2nc(=O)n(-c3ccccc3S(C)(=O)=O)c3nc(-c4c(O)cccc4F)c(F)cc23)[C@@H](C)C1 [Example 85, 4-((S)-4-acryloyl-2-methylpiperazin-1-yl)-6-fluoro-7-(2-fluoro-6-hydroxyphenyl)-1-(2-(methylsulfonyl)phenyl) pyridino[2,3-d] pyrimidin-2(1H)-one]
< 1 µM | C=CC(=O)N1CCN(c2nc(=O)n(-c3ccccc3S(=O)(=O)C(C)C)c3nc(-c4c(O)cccc4F)c(F)cc23)[C@@H](C)C1 [Example 86, 4-((S)-4-acryloyl-2-methylpiperazin-1-yl)-6-fluoro-7-(2-fluoro-6-hydroxyphenyl)-1-(2-(isopropylsulfonyl)phenyl) pyridino[2,3-d] pyrimidin-2(1H)-one]
< 0.1 µM | C=CC(=O)N1CCN(c2nc(=O)n(-c3c(C)cccc3S(C)(=O)=O)c3nc(-c4c(O)cccc4F)c(F)cc23)[C@@H](C)C1 [Example 87, 4-((S)-4-acryloyl-2-methylpiperazin-1-yl)-6-fluoro-7-(2-fluoro-6-hydroxyphenyl)-1-(2-methyl-6-(methylsulfonyl)phenyl) pyridino[2,3-d] pyrimidin-2(1H)-one]
